From US4892876A, “Method for inhibiting HIV and an pharmaceutical composition therefor” (Nippon Kayaku Kabushiki Kaisha, priority 1987, dated 1990)

Tests used:
mice = assay: Toxicity after 1 intraperitoneal administration in mice; type: in vivo; conditions: 1 administration of 800 mg/kg
[1] = Toxicity, general statement including repetitive administration; type: in vivo
[2] = test system: HIV (Human Immunodeficiency Virus); assay: Development of virus antigen in HIV-infected MT-4 cells (fluorescent antibody technique); type: cell-based
[3] = test system: HIV (Human Immunodeficiency Virus); assay: Inhibition of HIV cytopathic effect in MT-4 cells (microscopic observation); type: cell-based
Protocol: (§1) About 50,000 cells/ml of MT-4 cell was introduced into a tray having 24 holes. Further, 100 ul of a solution containing a predetermined quantity of oxcetanocin was added, and then it was cultured in a 5% (v/v) carbon dioxide gas incubator at 37° C. for 2 hours. Subsequently, 10^3 to 1.0^4 infective units of HIV were added and cultured for 5 days. Then, the inhibition of cytopathic effect was observed microscopically.

MT-4 cell = assay: Cytotoxic effect on MT-4 cell without virus; type: cell-based; conditions: at concentration of 30 ug/ml
Protocol: as §1, with “microscopically. Cytotoxic effect of oxcetanocin on MT-4 cell was examined without adding virus according to the above technique.” for “microscopically.”

Nc1ncnc2c1ncn2C1OC(CO)C1CO (centres unmarked) [Oxcetanocin, oxcetanocin]
Toxic sign (mice): Any toxic sign has not been observed | Toxicity [1]: slightly toxic | Development of virus antigens (in words) [2]: very suppressive to development of virus antigens | Inhibition of cytopathic effect (in words) [3]: predominantly inhibitory to cytopathic effect | Cytotoxicity (in words) (MT-4 cell): not cytotoxic
